Experimental data reported in patent publication US20170023547A1, “CHEMICAL THREAT ASSESSMENT BY RAPID MOLECULAR PHENOTYPING” (Vanderbilt University, priority 2015, published 2017).

Legend:
Format in all cases: cell-based, Human
[1] = test system: A549 cells; assay: Molecular screening assay (MALDI FTICR MS molecular variance score); details: 1 and 6 h exposure, doses 20-100 μM
Experimental: After incubation for the respective times, wells were washed 3 times with PBS and stored at −80° C. The effect of different toxin dosage amounts and exposure times on the molecular content of a sample may be evaluated and reported directly for thousands of molecular species based upon the mass spectra that were collected for each of the samples. A comparison of the mass-to-charge (m/z) peak content between spectra from dosed cells and a reference spectrum from a non-dosed control sample delivers a mass spectrometric assessment of toxicity-induced molecular variation. However, seeking a data-driven global comparison instead of focusing on specific molecular species of interest makes the assessment of molecular change between the different experimental conditions very complex and high dimensional. To determine which dosage amount induces the greatest molecular change, a quick and broad assessment of toxicity-induced molecular variance summarizing the entire recorded mass range was developed. […]
Within each time point (represented by a 24-well plate), seven different dosage conditions were measured: six different toxin dosages and one reference condition (e.g., untreated). Per dosage condition there were nine distinct replicate measurements made: each dosage condition was represented by three replicate wells, from which three technical replicate spectra were measured per well. […]

[2] = test system: A549 cells; assay: Apoptosis assay (ApoONE, caspase 3/7 activation); details: 50 μM cisplatin
Experimental: Cell viability and apoptosis were assessed by CellTiter Glo (Promega) and ApoONE (Promega) kits, respectively. Molecular changes were screened using a MALDI524 FTICR MS platform.
Human lung carcinoma A549 cells were obtained from ATCC (Manassas, Va.) and cultured in Dulbecco's Modified Eagle's Medium (DMEM, Gibco) with 10% v/v heat-inactivated fetal bovine serum (Atlanta Biologicals) and 1% v/v penicillin/streptomycin (P/S) (Gibco) at 37° C. with 5% CO2 atmosphere. Stable isotope labeling by amino acids in cell culture (SILAC) media were prepared using SILAC DMEM (Thermo Scientific) containing 10% v/v dialyzed heat-inactivated FBS (Fisher), 1% v/v P/S, proline (250 mg/L) (Thermo Scientific), and appropriate light and heavy labeled arginine (84 mg/L), lysine (146 mg/L). […]
At each time point, cell viability and apoptosis were assessed by CellTiter-Glo (Promega) and ApoONE (Promega) kits, respectively. Plates were incubated at 37° C. in a plate reader (BioTek) with data acquisition every 10 min by luminescence (1 s read time, 200 gain) and fluorescence (485 nm excitation, 528 nm emission). […] Cell viability was also assessed using the LIVE/DEAD Viability/Cytotoxicity Kit for mammalian cells (ThermoFisher). […]

[3] = test system: A549 cells; assay: Multi-omics analysis (transcriptome, proteome, phosphoproteome, metabolome); details: 50 μM cisplatin, A549 cells, 1, 6, 24 and 48 h
Experimental: Samples were analyzed for transcriptome changes by RNA sequencing at the Genomics Services Lab, HudsonAlpha, for proteome changes by label free, SILAC, and phospho-enriched SILAC LC-MS/MS, and metabolome changes by UPLC-IM-MS and data-independent acquisition (MSE) using both hydrophilic-interaction liquid chromatography and reverse phase liquid chromatography.
RNA was isolated using the RNeasy Mini Kit (Qiagen). For each time point, untreated and cisplatin-treated samples were isolated in triplicate and analyzed by the Genomics Services Lab at HudsonAlpha. RNAseq was performed using poly(A) selection on an Illumina HiSeq v4 sequencing platform. Reads were paired-end with a read length of 50 bp and 50 million reads per sample.
Cells were scraped from slides and lysed in 300 μL of 50 mM Tris pH 8, 150 mM NaCl, 1% Nonidet 40, 1 mM EDTA with added HALT Protease Inhibitor Cocktail (Thermo Scientific), centrifuged, and assayed for protein concentration (BCA Protein Assay, Thermo Scientific Pierce) using a SpectraMax M2e Microplate Reader with SoftMax Pro software version 5 (Molecular Devices). Aliquots of 100 μg of protein were acetone precipitated in six times the volume for 2 h at −80° C. Precipitates were washed three times with cold acetone and reconstituted in 10 μL of neat trifluoroethanol (TFE) and 10 μL of 100 mM Tris (pH 8.0). […]

N.N.[Cl][Pt][Cl] [cisplatin] was tested, and the “dose up to which molecular variance increased (maximum molecular response, optimal dose)” value [1] was 50 µM, the “time of maximal caspase activation” value [2] was 24 h and the “percentage of unique species detected that were significantly changed” value [3] was 24%. The “number of significantly changed unique species” value ([3]; of 53,500 unique species detected) was 13,483.
